Reference: US5628328A, “Method for measuring muscle mass” (priority 1995, dated 1997)

Key:
[1] = set-up: species or system human; details: in vivo
Protocol: Each study was four days in duration. Starting at t=0 (8.00 hours), subjects were administered a bolus infusion of L-3-[methyl^2 H3 ]-histidine (D3 -3-methylhistidine) at 0.13 μmol/kg into the forearm vein of the dominant arm. The infusate was passed through a Millex-GS sterilizing filter (0.22 μm; Millipore Products Divisions, Bedford, Mass.) before the infusion. Blood samples were obtained from the superficial hand vein and from the deep forearm vein at 0, 1, 2, 5, 10, 15, 30, 45, 90, 150, 210, 270, 330, and 720 min. postinjection. During this time, the subjects were required to stay at the Clinical Research Center, although they were allowed to ambulate freely within their rooms. Free access to food and drink was allowed after the 330-min sample. After 720 min, the catheters were removed and the patients were allowed to go home. For the following three days, the subjects returned to the CRC each morning before eating for further blood sampling by percutaneous venous puncture at 1,440, 2,880, and 4,320 min postinjection. Urine was collected over 24 hour periods the day before and for three days after tracer infusion.
Blood was collected in heparinized syringes, transferred to tubes containing Na2 EDTA (15 mg/tube), and centrifuged. The plasma obtained was immediately placed on ice. An aliquot of the plasma was processed for determination of 3-methylhistidine concentration as well as the L-3-[methyl-^2 H3 ]-histidine:3-methylhistidine isotope enrichment. The remainder of the plasma was frozen at -70° C. […] Urinary 3-methylhistidine concentration and production were also measured (Rathmacher, J. A. et al., "Gas chromatographic-mass spectrometric analysis of stable isotopes of 3-methylhistidine in biological fluids: application to plasma kinetics in vivo," Biol. Mass Spectrom. (1992) 21:560-566). […]

[2] = dogs, cited from earlier work

Model 3-methylhistidine production above urinary estimate [1]: 16% | Model 3-methylhistidine production versus urinary production [1]: qualitatively similar | Urinary 3-methylhistidine production versus model estimate [1]: lower than the model estimate
SMILES: Cn1cnc(C[C@H](N)C(=O)O)c1 [3-methylhistidine]
3MH Production ([2]; n=5, from model): 12 µmol/kg/day | M1, compartment mass ([2]; n=5): 3227 nmol/kg | M2, compartment mass ([2]; n=5): 7973 nmol/kg | M3, compartment mass ([2]; n=5): 9261 nmol/kg | R01 mass transfer rate ([2]; n=5): 9 nmol/kg/min | R12 mass transfer rate ([2]; n=5): 329 nmol/kg/min | R21 mass transfer rate ([2]; n=5): 319 nmol/kg/min | R23 mass transfer rate ([2]; n=5): 56 nmol/kg/min | R32 mass transfer rate ([2]; n=5): 56 nmol/kg/min | L0,1 fractional transfer rate ([2]; number 5): .02 min⁻¹ | L1,2 fractional transfer rate ([2]; number 5): .06 min⁻¹ | L2,1 fractional transfer rate ([2]; number 5): .11 min⁻¹ | L2,3 fractional transfer rate ([2]; number 5): .008 min⁻¹ | L3,2 fractional transfer rate ([2]; number 5): .006 min⁻¹ | Urinary 3MH loss ([2]; number 5): 100 % of total
